# Reference: patent US20140315933A1, “CHEMICAL COMPOUNDS” (Pfizer Limited, priority 2013, published 2014)
# Structures can show the parent of a compound that is named as a salt.
# Biological target: T1, URAT-1 transporter (Homo sapiens, UniProt Q96S37)
# T1 construct: expressed in transfected cells
# Assay: URAT-1 inhibitor activity: [14C]-uric acid uptake into CHO-URAT1(L)GFP#8 (CHO#8) cells, scintillation proximity
# Type: cell-based
# How it was run: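 Scintillation proximity read-out of 30 nM (final) [14C]-uric acid uptake over three hours at room temperature in chloride-free HEPES buffer pH 7.4. Compounds, 0–10 μM final with 0.25% DMSO, were added 15 minutes before substrate; cells were a clonal CHO line with human URAT1(L)-eGFP, preincubated 1 hour in chloride buffer.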
# T1 sequence (Q96S37 with tags, fused parts or gaps): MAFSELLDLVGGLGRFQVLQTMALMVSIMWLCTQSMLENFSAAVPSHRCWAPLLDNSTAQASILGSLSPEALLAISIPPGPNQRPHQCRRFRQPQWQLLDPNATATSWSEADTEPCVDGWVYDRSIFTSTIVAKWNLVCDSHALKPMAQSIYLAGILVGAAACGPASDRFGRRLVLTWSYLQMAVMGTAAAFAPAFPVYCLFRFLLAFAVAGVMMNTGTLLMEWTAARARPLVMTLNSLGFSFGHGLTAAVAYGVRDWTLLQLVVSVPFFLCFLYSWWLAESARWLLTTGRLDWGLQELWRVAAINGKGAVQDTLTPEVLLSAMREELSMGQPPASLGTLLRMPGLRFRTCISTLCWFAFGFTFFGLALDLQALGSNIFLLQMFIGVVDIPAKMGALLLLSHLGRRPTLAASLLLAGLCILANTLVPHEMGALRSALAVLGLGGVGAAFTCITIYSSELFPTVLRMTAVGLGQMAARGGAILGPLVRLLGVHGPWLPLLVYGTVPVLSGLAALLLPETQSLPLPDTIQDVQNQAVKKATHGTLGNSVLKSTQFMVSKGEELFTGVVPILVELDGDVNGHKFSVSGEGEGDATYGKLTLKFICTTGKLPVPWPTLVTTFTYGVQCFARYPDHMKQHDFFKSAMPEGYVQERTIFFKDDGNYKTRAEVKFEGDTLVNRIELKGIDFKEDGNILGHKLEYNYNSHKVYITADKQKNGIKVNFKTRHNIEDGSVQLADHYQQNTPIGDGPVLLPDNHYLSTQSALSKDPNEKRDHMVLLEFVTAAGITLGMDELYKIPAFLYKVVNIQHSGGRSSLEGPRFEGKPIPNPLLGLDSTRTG
row,SMILES,IC50 [nM]
1,"N#Cc1ccc(Oc2cc(F)c(S(=O)(=O)Nc3ncns3)cc2F)cc1Cl [compound 208, 4-(3-chloro-4-cyanophenoxy)-2,5-difluoro-N-(1,2,4-thiadiazol-5-yl)benzenesulfonamide]",1790
2,O=S(=O)(Nc1nncs1)c1cc(F)c(Oc2ccc(F)c(F)c2)cc1F [compound 209],> 7250
3,N#Cc1ccc(Oc2ccc(S(=O)(=O)Nc3ncns3)cc2Cl)cc1Cl [compound 210],1610
4,Cc1cc(S(=O)(=O)Nc2ncns2)ccc1Oc1ccc(F)c(F)c1 [compound 211],1110
5,N#Cc1cc(S(=O)(=O)Nc2ncns2)ccc1Oc1ccc(F)c(F)c1 [compound 212],782
6,N#Cc1cc(Oc2cc(F)c(S(=O)(=O)Nc3ncns3)cc2F)ccc1F [compound 213],2040
7,Cc1cc(S(=O)(=O)Nc2nncs2)c(F)cc1Oc1ccc(F)c(C#N)c1 [compound 214],> 10000
8,N#Cc1ccc(Oc2c(F)cc(S(=O)(=O)Nc3ncns3)cc2F)cc1Cl [compound 215],> 10000
9,N#Cc1cc(Oc2ccc(S(=O)(=O)Nc3nncs3)cc2Cl)ccc1F [compound 216],1420
10,N#Cc1cc(Oc2cc(F)c(S(=O)(=O)Nc3nncs3)cc2F)ccc1F [compound 217],> 10000
11,N#Cc1ccc(Oc2ccc(S(=O)(=O)Nc3ncns3)cc2C#N)cc1Cl [compound 218],> 1660
12,N#Cc1ccc(Oc2ccc(S(=O)(=O)Nc3nncs3)cc2C#N)cc1Cl [compound 219],426
13,"N#Cc1ccc(Oc2ccc(S(=O)(=O)Nc3cscn3)cc2C#N)cc1Cl [compound 220, 4-(3-chloro-4-cyanophenoxy)-3-cyano-N-(1,3-thiazol-4-yl)benzenesulfonamide]",110
14,N#Cc1cc(Oc2cc(F)c(S(=O)(=O)Nc3cscn3)cc2F)ccc1F [compound 221],> 10000
15,N#Cc1cc(Oc2cc(F)c(S(=O)(=O)Nc3cscn3)cc2Br)ccc1F [compound 222],> 3130
16,Cc1cc(S(=O)(=O)Nc2cscn2)c(F)cc1Oc1ccc(F)c(F)c1 [compound 223],> 10000
17,O=S(=O)(Nc1cscn1)c1ccc(Oc2ccc(F)c(F)c2)cc1F [compound 224],> 10000
18,N#Cc1ccc(Oc2ccc(S(=O)(=O)Nc3cscn3)c(F)c2)cc1Cl [compound 225],300
19,O=S(=O)(Nc1nccs1)c1ccc(Oc2ccc(F)c(F)c2)c(F)c1 [compound 226],> 10000
20,N#Cc1ccc(Oc2ccc(S(=O)(=O)Nc3cscn3)c(Cl)c2)cc1Cl [compound 227],> 10000
21,"N#Cc1cc(S(=O)(=O)Nc2cscn2)ccc1Oc1ccc(F)c(F)c1 [compound 228, 3-cyano-4-(3,4-difluorophenoxy)-N-(1,3-thiazol-4-yl)benzenesulfonamide]",123

row,SMILES,IC50 [nM]
1,O=S(=O)(Nc1cscn1)c1cc(Cl)c(Oc2ccc(F)c(F)c2)cc1F [compound 229],> 10000
2,N#Cc1ccc(Oc2cc(F)c(S(=O)(=O)Nc3cscn3)cc2F)cc1Cl [compound 231],> 10000
3,N#Cc1ccc(Oc2ccc(S(=O)(=O)Nc3nccs3)cc2F)cc1Cl [compound 232],513
4,N#Cc1cc(Oc2ccc(S(=O)(=O)Nc3cscn3)c(F)c2)ccc1F [compound 233],> 10000
5,O=S(=O)(Nc1cscn1)c1cc(Br)c(Oc2ccc(F)c(F)c2)cc1F [compound 234],> 10000
6,N#Cc1cc(Oc2cc(F)c(S(=O)(=O)Nc3cscn3)cc2Cl)ccc1F [compound 235],> 10000
7,N#Cc1cc(Oc2ccc(S(=O)(=O)Nc3cscn3)c(Cl)c2)ccc1F [compound 236],> 10000
8,O=S(=O)(Nc1cscn1)c1ccc(Oc2ccc(F)c(F)c2)cc1Cl [compound 237],> 10000
9,O=S(=O)(Nc1cscn1)c1cc(F)c(Oc2ccc(F)c(F)c2)cc1F [compound 238],> 10000
10,N#Cc1ccc(Oc2cc(F)c(S(=O)(=O)Nc3cscn3)cc2Cl)cc1Cl [compound 239],> 10000
11,N#Cc1cc(Oc2ccc(S(=O)(=O)Nc3cscn3)cc2I)ccc1F [compound 240],577
12,O=S(=O)(Nc1cscn1)c1ccc(Oc2ccc(F)c(F)c2)c(I)c1 [compound 241],> 10000
13,N#Cc1cc(Oc2ccc(S(=O)(=O)Nc3nccs3)cc2F)ccc1F [compound 242],967
14,N#Cc1cc(S(=O)(=O)Nc2ncns2)ccc1Oc1c(F)cccc1Cl [compound 251],1320
15,"Cc1cncc(Oc2ccc(S(=O)(=O)Nc3ncns3)cc2C#N)c1 [compound 252, trifluoroacetic acid salt]",1110
16,"N#Cc1cc(S(=O)(=O)Nc2ncns2)ccc1Oc1cccnc1 [compound 253, trifluoroacetic acid salt]",2130
17,"CSc1ncccc1Oc1ccc(S(=O)(=O)Nc2ncns2)cc1C#N [compound 254, trifluoroacetic acid salt]",878
18,"CCSc1ncccc1Oc1ccc(S(=O)(=O)Nc2ncns2)cc1C#N [compound 255, trifluoroacetic acid salt]",684
19,COc1ccc(Oc2ccc(S(=O)(=O)Nc3ncns3)cc2C#N)c(C)c1 [compound 256],> 4820
20,COc1ccc(Oc2ccc(S(=O)(=O)Nc3ncns3)cc2C#N)cc1F [compound 257],1200
21,Cc1ccc(Oc2ccc(S(=O)(=O)Nc3ncns3)cc2C#N)cc1 [compound 258],3120

row,SMILES,IC50 [nM]
1,CCOc1cc(C)ccc1Oc1ccc(S(=O)(=O)Nc2ncns2)cc1C#N [compound 259],3130
2,Cc1cccc(Oc2ccc(S(=O)(=O)Nc3ncns3)cc2C#N)c1 [compound 260],1960
3,COc1ccc(Cl)c(Oc2ccc(S(=O)(=O)Nc3ncns3)cc2C#N)c1 [compound 261],1820
4,CC(C)Oc1ccc(F)cc1Oc1ccc(S(=O)(=O)Nc2ncns2)cc1C#N [compound 262],3580
5,COc1cccc(Cl)c1Oc1ccc(S(=O)(=O)Nc2ncns2)cc1C#N [compound 263],2250
6,COc1c(F)ccc(Oc2ccc(S(=O)(=O)Nc3ncns3)cc2C#N)c1C [compound 264],1650
7,COc1cccc(F)c1Oc1ccc(S(=O)(=O)Nc2ncns2)cc1C#N [compound 265],2430
8,COc1c(Oc2ccc(S(=O)(=O)Nc3ncns3)cc2C#N)ccc(F)c1C [compound 266],1570
9,COc1cc(Cl)ccc1Oc1ccc(S(=O)(=O)Nc2ncns2)cc1C#N [compound 267],930
10,COc1ccc(Oc2ccc(S(=O)(=O)Nc3ncns3)cc2C#N)cc1Cl [compound 268],1470
11,COc1cc(Cl)cc(Oc2ccc(S(=O)(=O)Nc3ncns3)cc2C#N)c1 [compound 269],278
12,COc1cc(F)c(F)cc1Oc1ccc(S(=O)(=O)Nc2ncns2)cc1C#N [compound 270],957
13,COc1ccccc1Oc1ccc(S(=O)(=O)Nc2ncns2)cc1C#N [compound 271],4540
14,"Cc1ccncc1Oc1ccc(S(=O)(=O)Nc2ncns2)cc1C#N [compound 272, trifluoroacetic acid salt]",> 4320
15,"CCc1ncccc1Oc1ccc(S(=O)(=O)Nc2ncns2)cc1C#N [compound 273, trifluoroacetic acid salt]",> 10000
16,"CC(C)c1ncccc1Oc1ccc(S(=O)(=O)Nc2ncns2)cc1C#N [compound 274, trifluoroacetic acid salt]",> 10000
17,"Cc1ccnc(C)c1Oc1ccc(S(=O)(=O)Nc2ncns2)cc1C#N [compound 275, trifluoroacetic acid salt]",> 10000
18,"CCc1nc(C)ccc1Oc1ccc(S(=O)(=O)Nc2ncns2)cc1C#N [compound 276, trifluoroacetic acid salt]",> 10000
19,COc1ccc(F)cc1Oc1ccc(S(=O)(=O)Nc2ncns2)cc1C#N [compound 277],> 5430
20,CC(C)Oc1ccccc1Oc1ccc(S(=O)(=O)Nc2ncns2)cc1C#N [compound 278],2740
21,CCOc1ccc(Oc2ccc(S(=O)(=O)Nc3ncns3)cc2C#N)cc1 [compound 279],> 10000

row,SMILES,IC50 [nM]
1,CCOc1cccc(Oc2ccc(S(=O)(=O)Nc3ncns3)cc2C#N)c1 [compound 280],2290
2,CCOc1ccccc1Oc1ccc(S(=O)(=O)Nc2ncns2)cc1C#N [compound 281],3250
3,COc1ccc(F)c(Oc2ccc(S(=O)(=O)Nc3ncns3)cc2C#N)c1F [compound 282],1660
4,COc1c(Cl)cccc1Oc1ccc(S(=O)(=O)Nc2ncns2)cc1C#N [compound 283],> 8570
5,COc1ccc(C)cc1Oc1ccc(S(=O)(=O)Nc2ncns2)cc1C#N [compound 284],2520
6,COc1cc(C)ccc1Oc1ccc(S(=O)(=O)Nc2ncns2)cc1C#N [compound 285],5590
7,COc1cc(F)ccc1Oc1ccc(S(=O)(=O)Nc2ncns2)cc1C#N [compound 286],1010
8,COc1ccc(F)c(Oc2ccc(S(=O)(=O)Nc3ncns3)cc2C#N)c1 [compound 287],1440
9,Cc1c(Oc2ccc(S(=O)(=O)Nc3ncns3)cc2C#N)ccc(F)c1F [compound 288],431
10,COc1cc(F)cc(Oc2ccc(S(=O)(=O)Nc3ncns3)cc2C#N)c1 [compound 289],479
11,COc1ccc(Oc2ccc(S(=O)(=O)Nc3ncns3)cc2C#N)c(Cl)c1 [compound 290],1100
12,N#Cc1cc(S(=O)(=O)Nc2ncns2)ccc1Oc1cccc(Cl)c1 [compound 291],1130
13,COc1cc(C)cc(Oc2ccc(S(=O)(=O)Nc3ncns3)cc2C#N)c1 [compound 292],1130
14,COc1cccc(Oc2ccc(S(=O)(=O)Nc3ncns3)cc2C#N)c1C [compound 293],> 6150
15,N#Cc1cc(S(=O)(=O)Nc2ncns2)ccc1Oc1ccc(F)cc1 [compound 294],888
16,CC(C)Oc1ccc(F)cc1Oc1cc(F)c(S(=O)(=O)Nc2nncs2)cc1Cl [compound 295],478
17,COc1cc(C#N)ccc1Oc1cc(F)c(S(=O)(=O)Nc2nncs2)cc1Cl [compound 296],> 10000
18,COc1cc(F)cc(Oc2cc(F)c(S(=O)(=O)Nc3nncs3)cc2Cl)c1 [compound 297],1010
